# Data: PubChem BioAssay (NCI)
#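 Values below derive from 48-hour exposures of cells grown in 96-well plates, with endpoints linearly interpolated between the two concentrations bracketing the appropriate inhibition level. At the TGI there is no net growth.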
# What was measured:
# Assay in all cases: NCI tumour cell line growth inhibition, 48 h
# [1] = system: OVCAR-4 ovarian
# [2] = system: UO-31 renal
# [3] = system: SNB-19 CNS
# [4] = system: HOP-62 NSCLC
# [5] = system: NCI-H522 lung
# [6] = system: COLO 205 colon
# [7] = system: SK-OV-3 ovarian
# [8] = system: SK-MEL-2 melanoma
# [9] = system: SNB-75 CNS
# [10] = system: HCT-116 colon
# [11] = system: KM12 colon
SMILES,TGI [1] [µM],TGI [2] [µM],TGI [3] [µM],TGI [4] [µM],TGI [5] [µM],TGI [6] [µM],TGI [7] [µM],TGI [8] [µM],TGI [9] [µM],TGI [10] [µM],TGI [11] [µM]
N=C(/C=C/c1ccc(-c2cn3cc(/C=C/C(=N)N4CCOCC4)ccc3n2)cc1)N1CCOCC1,> 100,> 100,> 100,> 100,> 100,> 100,> 100,> 100,> 100,> 100,> 100
CCCCc1ccc(N2C(=O)c3cc(C)cnc3S2(=O)=O)cc1,> 100,> 100,> 100,> 100,> 100,> 100,> 100,> 100,> 100,> 100,> 100
COc1ccc(OC)c2c1C[C@@H]1C(C#N)N3[C@H](Cc4c(OC)ccc(OC)c4[C@@H]3C)C(=O)N1[C@H]2C (some centres not stated),16.4,4.54,4.96,> 57.5,3.3,3.52,29.4,5.2,5.02,11.8,8.21
Cc1c(Cl)cccc1NC(=O)C(=O)C1C(=O)NC(=O)NC1=O,> 100,> 100,> 100,> 100,> 100,> 100,> 100,> 100,> 100,> 100,> 100
CC(C)C[C@H](NC(=O)[C@@H](Cc1cccc2ccccc12)NC(=O)N1CCOCC1)B(O)O,> 57.8,41.5,> 100,33.3,4.4,36.4,40.6,13.1,18.8,5.94,20
COC(=O)C1Cc2c([nH]c3ccccc23)-c2[nH]c3ccccc3c2CC(NC(C)=O)C(=O)NCC(=O)N1 (configuration not stated),> 100,> 100,> 100,> 100,> 100,> 100,> 100,> 100,> 100,> 100,> 100
CCCCN(CCCC)CC(=O)c1ccc2cc(Cl)c3ccccc3c2c1,69.1,50.4,> 100,> 100,47.3,34.1,> 100,69.9,67.3,> 100,> 100
CCN(CC)P1(=S)Oc2ccc3ccccc3c2-c2c(ccc3ccccc23)O1,> 100,> 100,> 100,> 100,> 100,> 100,> 100,> 100,> 100,> 100,> 100
CCOC(=O)C1(C(=O)OCC)C[C@H]2CON=C2[C@@H]1c1ccc(C(F)(F)F)cc1,61.4,27.5,> 100,64.9,61,> 100,> 100,> 100,> 100,> 100,> 100
COCOc1cc(OC)ccc1C=O,> 100,> 100,> 100,> 100,> 100,54.2,> 100,> 100,> 100,> 100,> 100
CCC(C#N)N(Cc1cccc(CN(C(C)=O)C(C#N)CC)c1)C(C)=O (configuration not stated),> 100,> 100,> 100,> 100,> 100,> 100,> 100,> 100,> 100,> 100,> 100
COc1ccccc1NC(=S)N/N=C(/c1ccccc1)c1ccccn1,19.3,14.1,21.8,12.6,17.3,0.59,13.8,21.7,24.7,14.7,14
CC1OC(OC2C(CO)OC(O[C@H]3CC[C@@]4(C)C(=CC[C@H]5[C@@H]6C[C@@H]7O[C@](O)(CC[C@@H](C)COC8OC(CO)C(O)C(O)C8O)[C@@H](C)[C@@H]7[C@@]6(C)CC[C@@H]54)C3)C(OC3OC(C)C(O)C(O)C3O)C2O)C(O)C(O)C1O (some centres not stated),20.8,8.39,6.39,4.74,4.41,6.81,7.34,12.3,3.26,4.76,6.85
CCOC(=O)c1cc(-c2ccc(OC)c(OC)c2)cn1C,> 10,> 10,> 10,> 10,> 10,> 10,> 10,> 10,> 10,> 10,> 10
C=C1C(=O)OC2C(C)C3C=CC(=O)[C@@]3(C)C(OC(=O)/C(C)=C/C)C1[C@@H]2OC(C)=O (some centres not stated),2.53,2.48,4.13,2.86,0.334,0.906,3.52,1.18,2.98,0.769,3.68
C=C(C)C1CC2=C(C(=O)OC)C=C(O2)C(C(=C)C)[C@@H]2OC(=O)/C(=C\C1O)[C@H]2N(C)C (some centres not stated),21,26.4,50.9,34.2,10.3,29,64.1,26.7,30.4,27.7,28
CCc1nnc2sc(-c3ccc(-c4ccc(Cl)cc4Cl)o3)nn12,> 100,> 100,> 100,> 100,> 100,> 100,> 100,> 100,56,> 100,> 100
CCOC(=O)c1ccc(N=C/C=C(\Nc2ccc(C(=O)OCC)cc2)c2ccc3ccccc3c2)cc1,80.3,> 100,> 100,95.8,> 100,32.6,> 100,66.9,> 100,> 100,48.2
COC(=O)CCCc1ccc2c(c1)CCC2,> 100,> 100,> 100,> 100,> 100,> 100,> 100,> 100,> 100,> 100,> 100

SMILES,TGI [1] [µM],TGI [2] [µM],TGI [3] [µM],TGI [4] [µM],TGI [5] [µM],TGI [6] [µM],TGI [7] [µM],TGI [8] [µM],TGI [9] [µM],TGI [10] [µM],TGI [11] [µM]
CC(=O)OC(C)(C)C1CCC(C)(C(O)COc2ccc(CCNC(=O)c3ccccc3)cc2)O1 (configuration not stated),> 100,> 100,> 100,> 100,> 100,> 100,> 100,> 100,> 100,> 100,> 100
CCC1=C(C)C2=NC1=CC1=NC(=C(CC)/C1=C/O)C=C1N=C3C(=C1C)C(=O)C(C(=O)OC)C3=C1NC(=C2)C(C)C1CCC(=O)OC (configuration not stated),> 100,> 100,> 100,> 100,> 100,> 100,> 100,> 100,> 100,> 100,> 100
NC12c3c4cccc3Oc3cccc(c31)Oc1cccc(c12)O4,> 50,> 50,> 50,> 50,> 50,> 50,> 50,> 50,> 50,> 50,> 50
CC(=O)NC1C(OCC(=O)NC(C)C(=O)NC(CCC(=O)NCCCCCNc2ccc([N+](=O)[O-])c3[nH]c4ccccc4c(=O)c23)C(N)=O)C(O)C(CO)OC1(C)OCc1ccccc1 (configuration not stated),> 50,> 50,> 50,> 50,> 50,> 50,> 50,> 50,> 50,> 50,> 50
CC(C)(C)c1cc(C2COC(=O)COCCOCC(=O)OCCOCCO2)cc(C(C)(C)C)c1O (configuration not stated),> 100,30.5,> 100,> 92.9,> 94,> 100,> 78.4,> 100,49.6,> 100,> 100
NS(=O)(=O)c1ccc(CNC(=S)NC(=O)Nc2ccc(Cl)c(Cl)c2)cc1,> 100,32.5,44.3,38.3,34.2,77.4,52.8,31.4,60.2,32.6,43.1
Cc1ccc(S(=O)(=O)OC2CN3CCC2CC3)cc1 (configuration not stated),> 100,> 100,> 100,> 100,> 100,> 100,> 100,> 100,> 100,> 100,> 100
CC1OC(OP(=O)(OCc2ccccc2)OCc2ccccc2)C(OC(=O)c2ccccc2)C(OC(=O)c2ccccc2)C1I (configuration not stated),> 100,> 100,> 100,> 100,88.2,84.8,> 100,> 100,68.1,> 100,> 100
O=C(/C=C1\N=C(c2ccccc2)N(c2ccc3c(c2)Sc2cc(N4C(=O)/C(=C/C(=O)/C=C/c5ccccc5)N=C4c4ccccc4)ccc2N3)C1=O)/C=C/c1ccccc1,41.8,> 100,80,> 100,46.8,> 100,33.8,38.2,45.6,> 100,> 100
CC1(C)OC1CC/C(=C/CBr)CBr (configuration not stated),32.1,28.9,28.6,31.6,23.5,29.4,48.5,29,21,33,29.9
CCCCc1cc2c(cc1O)CCC1C2CC[C@@]2(C)C1CC[C@@H]2O (some centres not stated),37.3,38,> 100,57.3,43.7,49.5,37.1,38.1,31.7,36.6,32.4
S=C1c2cc(Cl)ccc2NC(=NC2CCCC2)C2CSCN12 (configuration not stated),> 100,> 100,> 100,> 100,> 100,> 100,> 100,> 100,> 100,> 100,> 100
CC(=O)c1ccc2c(c1)CC1(C2)Cc2cc3c(cc2C1)C(=O)CC3 (configuration not stated),> 73.6,66.9,> 100,16.1,14.2,1.66,> 66.1,5.75,> 100,8.8,7.83
CC(=O)C1=CC=C/C1=N\Nc1ccccc1,20.1,25.8,47.6,50.9,19.1,22.9,30.7,27.7,24.6,17.5,15.5
COc1cc(O)c(C(=O)/C=C/c2ccc(O)cc2)cc1Oc1ccc(C(=O)/C=C/c2ccc(O)cc2)c(O)c1,8.37,7.06,25.1,9.17,6.22,3.58,9.15,14.7,7.5,4,3.18
COc1ccc(N(C(=O)OC(C)(C)C)[C@@H]2C(C)=C[C@H]([S@@](=O)c3ccc(C)cc3)[C@@H]3C(=O)N(C)C(=O)[C@@H]32)cc1,34.2,30.1,51.5,64.2,18.5,31,30.3,39.3,21.4,35.9,30.5
CC1(c2cccc(C3CCC4(C=CC3=O)OCCO4)c2)OCCO1 (configuration not stated),18.1,12.7,> 45.9,47.9,3.53,18.6,> 67.5,27.4,30.3,13.2,33.4
O=Cc1cc(O)c(O)c(O)c1-c1c(C=O)cc(O)c(O)c1O,> 100,> 100,> 100,> 100,> 100,> 100,> 100,> 100,> 100,> 100,> 100
